Like-named read-outs stand apart in the source and are kept apart here.
How the values were obtained:
DMBT1-SRCRP2 = molecular target: T1, DMBT1-SRCRP2 (Homo sapiens, UniProt Q9UGM3); assay: Turbidometric competition assay, DMBT1-SRCRP2-mediated bacterial aggregation; format: binding; conditions: 0.32% to 2.50% (w/v) DSS; 0.28% to 0.84% degraded carrageenan; peptide 100 μg/ml
T1 construct: purity >85%); purchased Eurogentec (Belgium); host or cells: chemical synthesis
Description: (§1) Streptococcus gordonii (strain: […]) was cultured under anaerobic conditions as described before^17, harvested by centrifugation at 3,000 g, washed twice with PBS containing 10 mM EDTA and once with PBS and finally resuspended in PBS to a final OD700 of 2.0 corresponding to about 2.0×10^9 cells/ml, respectively.
(§2) Competition assays were carried out in a final volume of 500 μl at RT. Streptococcus gordonii (250 μl in PBS) was mixed with 100 μl synthetic peptide DMBT1-SRCRP2 diluted 1:1 in PBS (final concentration in the assay: 100 μg/ml) or 100 μl purified rDMBT1 in PBS (final concentration in the assay: 15 μg/ml) and 150 μl of the respective competitor stock solutions, so that the final concentrations ranged from 0.32% to 2.50% (w/v) DSS and 0.28% to 0.84% […] degraded carrageenan. Samples with 0.0% competitor served as controls. The samples were placed in a spectrophotometer (Anthelie; SECOMAN, France) and the OD700-value was measured in intervals of 3 minutes. Each experiment was at least done in triplicate. For the DSS competition studies, we used the same DSS as in the animal experiments (Mr=36-50 kDa; ICN Biomedicals Aurora). High molecular weight lambda carrageenan was obtained from Sigma (Taufkirchen; Germany). […]

[1] = molecular target: T2, human recombinant DMBT1 (rDMBT1) (Homo sapiens, UniProt Q9UGM3, G1295S/L1336F/T649M); assay: Turbidometric competition assay, rDMBT1-mediated Streptococcus gordonii aggregation; format: binding; conditions: 0.32% to 2.50% (w/v) DSS; 0.28% to 0.84% degraded carrageenan; rDMBT1 15 μg/ml
T2 construct: made in house; purified from culture supernatant
Description: as §1, §2

[2] = molecular target: T3, rDMBT1 binding to HIV-gp120 (Homo sapiens, UniProt Q9UGM3, G1295S/L1336F/T649M); assay: Effects of DSS and dextran on rDMBT1 binding to HIV-gp120; conditions: 100 μg/ml DSS or dextran; rDMBT1 2 μg/ml; gp120 1 μg/ml
T3 construct: made in house; host or cells: rDMBT1 from T-REx-CHO
Text: Values are means of five independent experiments.

human rDMBT1 = molecular target: T4, human rDMBT1 (Homo sapiens, UniProt Q9UGM3, G1295S/L1336F/T649M); assay: Binding of human rDMBT1 to immobilized DSS and degraded lambda carrageenan; conditions: rDMBT1 10 μg/ml; immobilized substance
T4 construct: made in house; purified from culture supernatant
T4 sequence (Q9UGM3 20-2413 T649M/G1295S/L1336F): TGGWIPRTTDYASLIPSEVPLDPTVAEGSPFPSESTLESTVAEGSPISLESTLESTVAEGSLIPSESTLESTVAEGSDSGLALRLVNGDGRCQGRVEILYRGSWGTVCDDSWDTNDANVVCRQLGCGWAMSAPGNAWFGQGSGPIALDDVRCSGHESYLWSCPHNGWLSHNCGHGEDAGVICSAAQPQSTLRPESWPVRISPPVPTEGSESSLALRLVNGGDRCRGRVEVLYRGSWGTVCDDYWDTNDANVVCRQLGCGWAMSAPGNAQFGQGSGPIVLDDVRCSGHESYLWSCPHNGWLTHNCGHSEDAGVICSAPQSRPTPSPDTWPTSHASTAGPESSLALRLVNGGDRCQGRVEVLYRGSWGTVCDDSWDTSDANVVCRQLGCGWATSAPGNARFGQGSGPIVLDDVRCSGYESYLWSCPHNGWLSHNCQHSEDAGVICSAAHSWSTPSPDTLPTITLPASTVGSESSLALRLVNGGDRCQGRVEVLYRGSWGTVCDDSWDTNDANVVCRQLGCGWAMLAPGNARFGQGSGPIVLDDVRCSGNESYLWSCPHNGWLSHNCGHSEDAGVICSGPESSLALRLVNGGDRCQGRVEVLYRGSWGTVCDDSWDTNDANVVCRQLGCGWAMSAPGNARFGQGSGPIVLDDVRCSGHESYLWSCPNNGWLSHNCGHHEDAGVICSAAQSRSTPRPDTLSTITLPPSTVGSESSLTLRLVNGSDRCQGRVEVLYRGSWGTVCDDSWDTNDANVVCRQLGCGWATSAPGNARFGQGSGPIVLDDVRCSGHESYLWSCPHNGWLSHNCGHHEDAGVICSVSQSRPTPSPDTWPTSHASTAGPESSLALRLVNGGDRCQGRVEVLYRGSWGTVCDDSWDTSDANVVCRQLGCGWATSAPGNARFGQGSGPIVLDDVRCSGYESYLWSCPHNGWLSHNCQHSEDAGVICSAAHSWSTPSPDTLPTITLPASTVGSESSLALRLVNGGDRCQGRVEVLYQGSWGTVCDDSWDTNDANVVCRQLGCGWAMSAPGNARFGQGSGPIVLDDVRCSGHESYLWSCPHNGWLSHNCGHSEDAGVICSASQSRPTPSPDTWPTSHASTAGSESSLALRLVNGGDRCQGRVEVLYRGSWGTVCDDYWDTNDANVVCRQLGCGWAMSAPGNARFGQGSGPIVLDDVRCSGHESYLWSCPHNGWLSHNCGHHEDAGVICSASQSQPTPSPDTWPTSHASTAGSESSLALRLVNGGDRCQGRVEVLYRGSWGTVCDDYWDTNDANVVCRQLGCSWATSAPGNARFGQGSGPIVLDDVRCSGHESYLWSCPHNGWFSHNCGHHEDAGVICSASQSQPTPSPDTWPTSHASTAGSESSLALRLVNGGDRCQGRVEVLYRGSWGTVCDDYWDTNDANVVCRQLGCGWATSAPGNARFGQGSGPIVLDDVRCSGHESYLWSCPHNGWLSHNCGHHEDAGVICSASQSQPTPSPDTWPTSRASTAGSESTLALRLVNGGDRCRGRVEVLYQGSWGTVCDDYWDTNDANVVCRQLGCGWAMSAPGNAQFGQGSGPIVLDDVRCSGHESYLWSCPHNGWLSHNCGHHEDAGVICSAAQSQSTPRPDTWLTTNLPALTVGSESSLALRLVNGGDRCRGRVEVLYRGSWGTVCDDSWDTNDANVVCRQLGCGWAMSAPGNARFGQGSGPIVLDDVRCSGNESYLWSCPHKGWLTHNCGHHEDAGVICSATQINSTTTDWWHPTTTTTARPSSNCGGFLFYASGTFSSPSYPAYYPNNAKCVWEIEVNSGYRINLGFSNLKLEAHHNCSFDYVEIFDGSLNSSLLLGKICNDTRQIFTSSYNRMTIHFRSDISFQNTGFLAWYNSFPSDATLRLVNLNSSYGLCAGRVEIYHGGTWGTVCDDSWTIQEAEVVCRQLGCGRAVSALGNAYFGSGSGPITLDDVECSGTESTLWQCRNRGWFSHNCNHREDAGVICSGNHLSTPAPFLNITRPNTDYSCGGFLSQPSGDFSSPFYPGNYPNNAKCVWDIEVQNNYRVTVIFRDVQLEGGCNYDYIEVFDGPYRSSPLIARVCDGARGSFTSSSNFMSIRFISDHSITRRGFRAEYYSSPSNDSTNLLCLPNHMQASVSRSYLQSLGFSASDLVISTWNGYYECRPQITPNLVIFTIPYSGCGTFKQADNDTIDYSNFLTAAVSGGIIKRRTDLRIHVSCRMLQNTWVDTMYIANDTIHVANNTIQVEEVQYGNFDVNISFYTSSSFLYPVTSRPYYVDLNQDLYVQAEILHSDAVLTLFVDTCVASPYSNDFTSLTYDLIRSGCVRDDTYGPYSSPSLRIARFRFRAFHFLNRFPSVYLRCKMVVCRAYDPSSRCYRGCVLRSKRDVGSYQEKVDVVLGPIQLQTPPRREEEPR
Description: DSS was serially diluted in coating buffer (100 mM carbonate buffer, pH 9.6) to obtain final concentrations of 2.5% to 0.02% (w/v). One hundred μl of the samples were applied onto ELISA plates (Microlon, F-Form; Greiner, Germany) and coating was done at 4° C. for 16 h. Acid hydrolyzed and pH-adjusted lambda carrageenan was serially diluted with the solvent (approximately 50 mM HCl and 50 mM NaOH) to obtain concentrations ranging from 2.8% to 0.0055% […] and coating of ELISA plates was done at 37° C. for 2 h. After coating and three washes with TBS containing 0.1% (v/v) Tween 20 (TBS-T), rDMBT1 (10 μg/ml in TBS-T) was added to each well and incubated at 37° C. for 1 h. The wells were then washed five times with 200 μl TBS-T, incubated at 37° C. for 1 h with the DMBT1-specific mouse monoclonal antibody anti(A2) gp-340 (Hyb213-06; Antibody-Shop; dilution 1:10,000 in TBS-T), washed again five-times with TBS-T, and incubated at 37° C. for 1 h with a rabbit anti-mouse IgG-HRP conjugate (Jackson; dilution 1:10,000 in TBS-T). Subsequent to five washes with TBS-T, 150 μl substrate (125 μg/ml 3,3′,5′-Tetramethyl-benzidine; in 0.1 M citrate buffer pH 4.5 with 0.05% (v/v) H2O2) were added, and after incubation at RT for 10-15 min the reaction was stopped by addition of […] 2 M HCl. The intensity of the dye reaction was measured at 450 nm in an ELISA reader (EL800; Bio-Tec Instruments Inc.). […]

DMBT1pbs1 = molecular target: T5, DMBT1pbs1 (Homo sapiens, UniProt Q9UGM3); format: binding; set-up: key: +++: no difference in aggregation compared to reference; ++: moderate inhibition of aggregation over the entire time course or maximal aggregation delayed by 1-5-min compared to reference; +: strong inhibition of aggregation over the entire time course or maximal aggregation delayed by 5-10 min compared to reference; −: complete inhibition of aggregation after 10 min; conditions: pH co
T5 construct: purchased Eurogentec, Belgium
Description: Streptococcus mutans (Ingbritt), Streptococcus gordonii (HG 222 and DSM20568), Escherichia coli (F7 and OM36-1), and Helicobacter pylori (ATCC 43504) were gown and processed as described earlier. Salmonella typhimurium (strain SF1399: wild type; strain SF1195: Rc chemotype; strain SF1567: Rd1 chemotype; strain SF1398: Re chemotype) were kindly provided by Dr. Ben Appelmelk from the Free University of Amsterdam, The Netherlands, and were grown and processed as previously described for E. coli. The bacteria were diluted in the buffers depicted previously to a final OD700 of 0.5 or 1.0 corresponding to about 0.5 and 1.0×10^9 cells/ml respectively.
For quantitative measurements of bacterial aggregation, we added 200 μl peptide stock solution (1 mg/ml in 10% DMSO) diluted with 300 μl TBS containing 0.1% v/v Tween 20 and 1 mM CaCl2 (TBS-TC) to 500 μl of the respective bacterial suspensions to obtain final peptide concentrations of […]. As controls, we used bacterial suspensions, to which 200 μl 10% (v/v %) DMSO in H2O and 300 μl TBS-TC were added. Bacterial aggregation was monitored by measuring the optical density at 700 nm in intervals of 1 min for 1 h in a spectrophotometer (UVICON 930, Kontron Instruments). For the semi-quantitative high-throughput competition assays, we first determined the allowed pH range for DMBT1pbs1-mediated aggregation of S. gordonii and E. coli by using TBS-TC adjusted with either HCl or NaOH. […] For monitoring competitive effects, we preincubated 20 μl of the DMBT1pbs1 stock solution (20 μg) with 20 μl of the respective substance solutions in 48-well microtiter plates at room temperature (RT) for 2 min. As reference served 20 μl 10% (v/v) DMSO solution in H2O mixed with 20 μl of the solvents of the respective substances. Afterwards, 100 μl of S. gordonii or E. coli (resuspended in TBS-TC or TBS-T, respectively, for the calcium-free assays) solution was added simultaneously to each well using a multichannel pipette. Bacterial aggregation was compared to the reference by visual inspection over a time course of 10 min. The scoring system was: (+++) no difference in aggregation compared to reference. (++) moderate inhibition of aggregation over the entire time course or maximal aggregation delayed by 1-5-min compared to reference; (+) strong inhibition of aggregation over the entire time course or maximal aggregation delayed by 5-10 min compared to reference; (−) complete inhibition of aggregation after 10 min. Each experiment was at least done in triplicate.
Sucrose, maltose, dextrose, and the various salts tested were standard reagents obtained from Merck or Sigma. […] The following substances were obtained from Sigma with catalogue numbers in brackets: heparansulfate (H-7640), chondroitinsulfate B (C-3788), azoxymethane (A-9517), N-nitrosodiethlylamine (N-0258), streptococcus sanguis LTA (L-3765), Staphylococcus aureus LTA (L-2515), Escherichia coli LPS (L-3012), Klebsiella pneumoniae LPS (L-1770), Salmonella typhimurium LPS (L-6511), Salmonella minnesota LPS (chemotype Rd1; L-9391), L-α-phosphatidylcholine (P-279), CUROSURF™ with 80 mg/ml phospholipids from pig surfactant (54 mg/ml phosphatidylcholine and 30-5 mg/ml D-palmitoylphosphatidylcholine; overall: 99% polar phospholipids and 1% proteins) was obtained from Dey (Napa; Italy), and sIgA was purchased from Sigma. The dNTPs and the dNTP-Mix were from Roche Diagnostics. The DNA used in all experiments was the 4.7-kb plasmid pEGFP-N1 from Clontech.

DMBT1 = molecular target: T6, DMBT1 (Homo sapiens, UniProt Q9UGM3); assay: Binding of DMBT1/rDMBT1 to immobilized candidate substances (ELISA); conditions: substance immobilized; DMBT1 or rDMBT1 10 μg/ml
T6 construct: was obtained from parotid saliva of healthy volunteer donors collected with Lashley cups; from tissue; host or cells: parotid saliva of healthy volunteer donors, purified to about 95% homogeneity
T6 sequence (Q9UGM3 20-2413): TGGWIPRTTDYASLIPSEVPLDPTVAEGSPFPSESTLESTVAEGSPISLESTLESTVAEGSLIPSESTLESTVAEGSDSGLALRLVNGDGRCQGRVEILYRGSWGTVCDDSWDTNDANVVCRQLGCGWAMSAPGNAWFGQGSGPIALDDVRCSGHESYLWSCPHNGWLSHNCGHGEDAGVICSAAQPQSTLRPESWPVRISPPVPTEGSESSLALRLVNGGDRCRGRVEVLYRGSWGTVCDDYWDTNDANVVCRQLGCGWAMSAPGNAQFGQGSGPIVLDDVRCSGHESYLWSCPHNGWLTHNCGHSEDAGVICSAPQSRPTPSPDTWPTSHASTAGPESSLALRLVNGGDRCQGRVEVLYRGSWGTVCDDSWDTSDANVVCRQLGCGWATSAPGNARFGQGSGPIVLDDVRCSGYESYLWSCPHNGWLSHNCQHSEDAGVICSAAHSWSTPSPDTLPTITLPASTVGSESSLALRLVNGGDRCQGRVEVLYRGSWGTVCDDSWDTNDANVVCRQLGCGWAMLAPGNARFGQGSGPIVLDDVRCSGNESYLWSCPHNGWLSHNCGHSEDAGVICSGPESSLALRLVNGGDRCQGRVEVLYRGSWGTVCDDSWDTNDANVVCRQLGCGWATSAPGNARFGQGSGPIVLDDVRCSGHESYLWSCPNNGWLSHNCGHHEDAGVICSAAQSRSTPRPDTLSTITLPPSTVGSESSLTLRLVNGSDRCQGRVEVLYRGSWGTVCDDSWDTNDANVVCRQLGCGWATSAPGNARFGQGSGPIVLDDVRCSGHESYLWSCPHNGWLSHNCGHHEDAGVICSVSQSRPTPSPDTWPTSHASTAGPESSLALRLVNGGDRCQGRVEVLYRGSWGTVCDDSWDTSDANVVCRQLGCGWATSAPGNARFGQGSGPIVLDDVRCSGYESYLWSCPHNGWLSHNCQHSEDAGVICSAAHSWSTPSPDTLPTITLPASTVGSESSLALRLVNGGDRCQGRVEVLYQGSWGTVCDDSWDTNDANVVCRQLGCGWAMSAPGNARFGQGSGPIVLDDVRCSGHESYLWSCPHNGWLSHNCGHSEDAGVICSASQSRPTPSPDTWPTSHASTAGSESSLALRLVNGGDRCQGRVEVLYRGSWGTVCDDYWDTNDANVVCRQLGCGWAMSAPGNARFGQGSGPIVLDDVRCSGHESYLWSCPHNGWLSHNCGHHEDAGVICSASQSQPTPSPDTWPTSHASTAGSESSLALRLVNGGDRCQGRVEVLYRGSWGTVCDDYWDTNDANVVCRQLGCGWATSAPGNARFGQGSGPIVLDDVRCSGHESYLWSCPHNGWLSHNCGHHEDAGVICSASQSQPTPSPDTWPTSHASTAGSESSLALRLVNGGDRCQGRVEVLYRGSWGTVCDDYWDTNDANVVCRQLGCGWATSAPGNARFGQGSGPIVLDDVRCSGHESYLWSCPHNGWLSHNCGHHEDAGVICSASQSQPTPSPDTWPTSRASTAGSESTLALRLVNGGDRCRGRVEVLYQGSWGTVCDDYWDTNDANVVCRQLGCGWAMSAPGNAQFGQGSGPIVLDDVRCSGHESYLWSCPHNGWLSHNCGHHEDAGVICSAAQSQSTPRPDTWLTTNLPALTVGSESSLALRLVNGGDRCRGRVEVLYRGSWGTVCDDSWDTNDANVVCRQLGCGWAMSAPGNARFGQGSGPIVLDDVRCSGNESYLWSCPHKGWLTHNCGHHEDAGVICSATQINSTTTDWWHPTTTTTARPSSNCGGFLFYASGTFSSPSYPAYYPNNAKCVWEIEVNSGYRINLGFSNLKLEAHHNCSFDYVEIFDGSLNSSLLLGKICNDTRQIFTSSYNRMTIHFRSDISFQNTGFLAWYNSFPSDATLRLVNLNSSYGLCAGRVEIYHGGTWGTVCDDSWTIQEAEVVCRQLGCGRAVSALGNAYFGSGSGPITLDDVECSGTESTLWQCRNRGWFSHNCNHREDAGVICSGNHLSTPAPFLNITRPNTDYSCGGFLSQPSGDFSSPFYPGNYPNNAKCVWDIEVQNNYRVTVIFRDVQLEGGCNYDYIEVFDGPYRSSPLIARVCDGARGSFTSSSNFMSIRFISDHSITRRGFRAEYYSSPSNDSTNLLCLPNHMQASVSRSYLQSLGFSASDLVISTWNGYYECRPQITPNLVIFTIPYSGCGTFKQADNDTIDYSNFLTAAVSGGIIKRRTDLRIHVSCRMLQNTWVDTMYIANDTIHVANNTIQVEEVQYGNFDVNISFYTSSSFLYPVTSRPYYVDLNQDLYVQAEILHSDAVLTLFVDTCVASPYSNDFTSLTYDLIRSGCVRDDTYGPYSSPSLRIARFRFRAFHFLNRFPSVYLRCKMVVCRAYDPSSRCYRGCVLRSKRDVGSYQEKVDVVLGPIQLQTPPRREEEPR
Description: For the peptide binding studies we used, unless otherwise indicated, 20 μg/ml peptide in a total volume of 100 μl (dilution in coating buffer, 100 mM carbonate buffer, pH 9.6) for the coating of high affinity ELISA plates (Microlon, Fluotrac 600; Greiner). When immobilizing rDMBT1, purified, partially purified DMBT1 or substances to be tested, we applied serial dilutions in coating buffer onto the plates. Coating was done at 4° C. for 16 h and was followed by three washes with PBS-T with 1 mM CaCl2 (PBS-TC). For the analysis of bacterial binding to immobilized peptides or protein, we incubated the wells with 100 μl bacterial solution at 37° C. for 2 h. After removal of unbound bacteria, 100 μl of SYTO-9 solution (Molecular Probes), which is a cell-permeable fluorescent DNA dye, was added, plates were incubated in the dark for 15 min and after three washes with PBS-TC, fluorescence was measured by determination of the emission at 535 nm with a microtiter plate reader (488 n=excitation; Fluostar Galaxy, BMG Laboratories). DNA binding to immobilized DMBT1 was analyzed by using the same plasmid (LPS-free preparation) as used for the competitive aggregation and transfection assays (see below). Bound DNA was detected analogous to detection of bacteria except for using SYTQ-13 as dye. […]

## Dextran sulfate sodium [Dextran sulfate sodium (DSS)]
DMBT1-SRCRP2
  Inhibitory effects on bacterial aggregation mediated by DMBT1-SRCRP2: Inhibitory effects
[1]
  Inhibitory effects on rDMBT1-mediated Streptococcus gordonii aggregation: Inhibitory effects
[2]
  inhibition of rDMBT1 binding to immobilized HIV-gp120: exerted an inhibitory effect
Human rDMBT1
  direct interaction with human DMBT1 (competition and binding studies in vitro): directly interacted
DMBT1pbs1; substance 10-50 mg/ml
  Aggregation of E. coli: −
  Aggregation of S. gordonii: −

## lipopolysaccharide [LPS]
DMBT1
  binding to DMBT1: showed binding to DMBT1

## lipoteichoic acid [LTA]
DMBT1
  binding to DMBT1: showed binding to DMBT1

## Degraded lambda-carrageenan
DMBT1-SRCRP2
  Inhibitory effects on bacterial aggregation mediated by DMBT1-SRCRP2: Inhibitory effects
[1]
  Inhibitory effects on rDMBT1-mediated Streptococcus gordonii aggregation: Inhibitory effects
Human rDMBT1
  direct interaction with human DMBT1 (competition and binding studies in vitro): directly interacted
DMBT1pbs1; substance 0.05 mg/ml
  Aggregation of E. coli: +++
  Aggregation of S. gordonii: ++
DMBT1pbs1; substance 0.1 mg/ml
  Aggregation of S. gordonii: +
